Data: ChEMBL document CHEMBL1150753, “Antitumor agents, 93. Bruceanol C, a new cytotoxic quassinoid from Brucea antidysenterica” (1988)
In brackets after ≈: the same amount, converted by molar mass.

Experiments:
Type in all cases: functional
Details in all cases: read-out: ED50 (the source's name)
KB = assay: Cytotoxicity against human KB cells
A549 = assay: Cytotoxicity against human A549 cells
HCT-8 = assay: Cytotoxicity against human HCT8 cells
P388 = assay: Cytotoxicity against mouse P388 cells

With `COC(=O)[C@]12OC[C@]34[C@H]([C@@H](O)[C@@H]1O)[C@@]1(C)[C@H](O)C(=O)C=C(C)[C@@H]1C[C@H]3OC(=O)[C@H](OC(=O)/C=C(\C)C(C)(C)OC(C)=O)[C@@H]24` [Bruceanol C] the EC50 (KB) was under 0.04 µg/mL, the EC50 (A549) was 0.48 µg/mL (≈ 0.791 µM) and the EC50 (HCT-8) was under 0.4 µg/mL. It also gave an EC50 (P388) of 0.56 µg/mL (≈ 0.923 µM).
